Test results as given in article PMC9611471 (Pharmaceutics, 2022).

Assays:
A549 cells [1] = test: SK1 and SK2 protein (Western blotting) and mRNA (qRT-PCR) levels; assay type: cell-based, human; details: 5 and 10 μM, 24 h
Experimental: Western blotting measured changes in apoptosis-related proteins (PARP, BAX, BCL-2, Caspase-3). A549 cells (1 × 10^6 cells per well in 6-well plates) were incubated for 24 h. Cells were treated with concentrations of the compounds and incubated for 24 h. Then, cells were dissolved on ice for two hours with a lysis buffer containing a mixture of protease and phosphatase inhibitors. The lysate was centrifuged at 12,000× g for 15 min at 4 °C, and the supernatant was collected. Protein concentrations were measured using a bicinchoninic acid protein assay kit. Total protein was separated by 8–10% sodium dodecyl sulfate–polyacrylamide gel electrophoresis (SDS-PAGE) and transferred onto polyvinylidene fluoride (PVDF) membranes. After being blocked with 5% skim milk, membranes were probed overnight at 4 °C with primary antibodies against SK1, SK2, PARP, BAX, Bcl-2, Caspase-3, and β-actin. Then, the membranes were incubated with subsequent secondary antibodies at room temperature. Then, the protein expressions were measured by Amersham Imager 680 (GE Healthcare, Leiden, WZ, The Netherlands).
RNAs were isolated using the Trizol/chloroform reagent (Invitrogen, Waltham, MA, USA). […] For quantitative analysis of various genes, qRT-PCR was performed using the Bio-Rad CFX384 Touch Real-time PCR detection system (Bio-Rad, Hercules, CA, USA) with SYBR Premix Ex Taq (Takara Bio, Shiga, Japan) for 40 cycles.

A549 cells [2] = test: Cytotoxicity after SK1/SK2 siRNA transfection; assay type: cell-based, human; details: A549 cells transfected with siSK1, siSK2; 24 h
Experimental: Control small interfering RNA (siControl) was obtained from Bioneer (Daejeon, Korea), while SK1 (sc-44114) and SK2 (sc-39225) siRNA (siSK1 and siSK2) were purchased from Santa Cruz Biotechnology (Dallas, TX, USA). Cells were transfected using Lipofectamine RNAiMAX Reagent (Invitrogen, Carlsbad, CA, USA) according to the manufacturer’s instructions. Transfection efficiency was monitored by Western blot. After 24 h of infection, cytotoxicity was measured using infected cells.

[3] = In vitro metabolic stability, dog liver microsomes; assay type: in vitro ADME; details: pooled liver microsomes, NADPH, 37 °C, 0 and 30 min
[4] = In vitro metabolic stability, rat liver microsomes; assay type: in vitro ADME; details: pooled liver microsomes, NADPH, 37 °C, 0 and 30 min
[5] = In vitro metabolic stability, mouse liver microsomes; assay type: in vitro ADME; details: pooled liver microsomes, NADPH, 37 °C, 0 and 30 min
[6] = tested on: A549 cell-induced tumor xenograft; test: A549 tumor xenograft in BALB/c nude mice; assay type: in vivo; details: vs control group
Experimental: Five-week-old BALB/c-nu/nu male mice were purchased from Orient Bio Inc. (Seongnam, Gyeonggi-do, Korea). The mice were housed in a climate-controlled room (22 ± 2 °C, 50 ± 10% relative humidity) and specific pathogen-free conditions with a 12 h light/dark cycle and adapted for a week with free access to food and water. Cages, bedding, and drinking water were autoclaved and changed regularly. The cancer cell suspension {3 × 10^7 cells/ 150 μL phosphate-buffered saline (PBS)} was inoculated subcutaneously into the right flank. Measurable tumors were found 7–8 days after cell inoculation, and tumors grew in 90% of the injection site two weeks later. The mice were randomly divided into test groups (12 mice per group) when the tumor volume reached 100 mm^2 about two weeks after the inoculation (experimental day 0). The control group (vehicle-treated group) and Compound 4 (5 mg/kg) were administered i.p. 3 times a week. The formulation of Compound 4 was prepared in a mixture of 10% DMSO + 90% PBS. The tumor growth rate and body weights in each of the two groups were measured every three days using a Vernier caliper and a digital weighing balance, respectively. Tumor volume was calculated as l × b^2 × 0.52, where l is the length and b is the width. Four weeks after treatment, blood samples were drawn from the orbital sinus under anesthesia, the mice were sacrificed by cervical dislocation, and the tumors were dissected for further examination.
The paraffin-embedded tumor specimens were deparaffinized with xylene and a series of different alcohol concentrations, rehydrated, and antigen retrieval was carried out with sodium citrate buffer (0.05 M with PH 6). After blocking with 5% BSA, the slides were incubated overnight at 4 °C with KI67 (Cell Signaling Technology, Danvers, MA, USA), Caspase-3 (Abcam, Cambridge, UK), and S1P antibodies (Echelon Biosciences inc, Salt Lake City, UT). The slides were washed with 1× TBST (TBST with PH 8.4) plus 0.5 percent Triton X-100 (Sigma-Aldrich, St. Louis, MO, USA), then secondary antibodies were added in 1:500 ratios (Invitrogen-Alexa Fluor plus 555, 488, and Alexa FluorTM546), and nuclear staining was performed with Hoechst (Invitrogen, Carlsbad, CA, USA), mounted with a flurosave reagent (EMD Millipore Crop, Billerica, MA, USA). Stain sections were observed and photographed using a confocal microscope (Carl-Zeiss-LSM710NLO and LSM780NLO), and results were analyzed using the Carl-Zeiss ZEN2 software and quantification was done by using the ImageJ software, respectively.

SK1 = SK1 (Homo sapiens, UniProt Q9NYA1); test: SK1 activity assay (Adapta screening system)
SK1, sequence (Q9NYA1 whole entry): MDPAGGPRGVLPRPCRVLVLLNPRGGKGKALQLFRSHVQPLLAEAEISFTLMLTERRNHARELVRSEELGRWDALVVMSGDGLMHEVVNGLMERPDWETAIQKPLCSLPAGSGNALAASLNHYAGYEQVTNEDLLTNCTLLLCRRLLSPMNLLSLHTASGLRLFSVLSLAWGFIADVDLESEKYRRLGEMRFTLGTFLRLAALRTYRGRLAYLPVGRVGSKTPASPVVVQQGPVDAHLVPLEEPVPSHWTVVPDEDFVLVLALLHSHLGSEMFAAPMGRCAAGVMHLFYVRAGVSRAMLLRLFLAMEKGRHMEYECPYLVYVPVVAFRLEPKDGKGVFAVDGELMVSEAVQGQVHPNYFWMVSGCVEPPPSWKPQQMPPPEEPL

A549 and H1299 cells = test: Cell proliferation / viability assay (EZ-CYTOX)
[7] = In vitro metabolic stability, human liver microsomes; details: pooled liver microsomes 0.5 mg/mL, NADPH, 37 °C, 0 and 30 min
[8] = immunohistochemistry, 5 mg/kg i.p.

## Cc1cc(CN(Cc2cc(C)cc(CS(=O)(=O)c3ccccc3)c2)c2ccc(CCN3CCC(CO)CC3)cc2)cc(CS(=O)(=O)c2ccccc2)c1 [Compound 4, (1-(4-(Bis(3-methyl-5-((phenylsulfonyl)methyl)benzyl)amino)phenethyl)piperidin-4-yl)methanol]
A549 cells [1]
  expression of proteins and mRNAs of SK1 and SK2: did not affect
A549 cells [2]
  dependence of cytotoxic efficacy on SK1/SK2 (siRNA knockdown): more dependent on SK1, although SK2 is also partially involved
[3]
  MS DLM: 26.1
[4]
  MS RLM: 22.9
[5]
  MS MLM: 38.5
[6]; 5 mg/kg i.p. 3 times a week, 29 days
  tumor volume: statistically significant inhibitory effect on the tumor volume
[6]; 5 mg/kg i.p. 3 times a week, day 29
  tumor weight: significant decrease in the tumor weight
[6]; 5 mg/kg i.p. 3 times a week
  weight of animals: no difference in the weight
[6]; [8]
  KI67 level in tumor sections (proliferation marker): decrease in the level of KI67
  S1P levels in the tumor section: decreased
  caspase-3 level in tumor sections (apoptosis marker): increased
SK1; SK1 vs SK2, compared to PF-543
  selectivity for SK1: lower selectivity for SK1 compared to PF-543
SK1; read-out: SK1 inhibitory efficacy
  inhibition at 10 µM: 31%
A549 and H1299 cells; 20 and 40 μM, A549 and H1299 cells
  cytotoxic effects compared with FTY720: cytotoxic effects similar to those of FTY720
A549 and H1299 cells; Homo sapiens, 24 h, read-out: IC50 (cytotoxic effect)
  IC50: 7.75 µM
[7]
  MS HLM: 30.2
